# Assay results: paper PMC6770336, “Computationally Designed Peptides for Zika Virus Detection: An Incremental Construction Approach” (Biomolecules, 2019)
# Legend:
# intact ZIKV particles [1] = experiment: Direct ELISA vs. intact ZIKV particles; assay type: binding, Zika virus; conditions: for FPLR—Dynamic Range: direct ELISA, plates coated with 10-fold serial dilutions of intact ZIKV particles, biotinylated peptide 20 μM in PBS pH 7.4 (4G2 1 μg/mL in PBST), absorbance 450 nm; for FPLR—Dynamic Range / FPLR—maximum / FPLR—minimum: four parameters logistic fit; for FPLR—Dynamic Range / FPLR—C50 / LOD: n = 3; for Long-term stability: dose-response performance of the ELISA reproducible over time, stock 1 mM in 10 mM PBS pH 7.4 stored at −30° C; for FPLR—C50: four parameters logistic fit of delta absorbance vs log ZIKV concentration; for FPLR—C50 / FPLR—maximum / FPLR—minimum / LOD: peptide 20 μM in PBS (4G2 1 μg/mL in PBST); for LOD: interpolated from calibration curve, LOD = AvB + 3 × SDB
# Experimental: Before biotin functionalization, peptides stock solution was reduced using Tris[2-carboxyethyl] phosphine hydrochloride (TCEP) disulfide reducing gel from ThermoFisher Scientific available online at: www.thermofisher.com (accessed on 15 April 2019) and after 1 h, the gel was removed using TCEP gel spin separation columns (ThermoFisher Scientific). Then, two-fold molar excess of EZ-Link™ Maleimide-PEG2-Biotin (ThermoFisher Scientific) was added to purified peptide solution and incubated for 1 h. […] Therefore, no further separation was carried out.
# (§1) To optimize all parameters of the direct ELISA protocol, Pierce 96-well polystyrene plates, (ThermoFisher Scientific) were coated overnight at 4° C with different concentrations of intact virus particles (ZIKV or DENV). The intact virus particles were diluted using 100 mM NaHCO3, pH 9.6, and aliquots of 100 μL were dispensed into each well of the plate using a multichannel pipette. This buffer pH assured a strong hydrophobic binding interaction between polystyrene and virus particles.
# The antibody 4G2 hybridoma mouse IgG2a was used as the reference and employed in combination with an anti-mouse IgG conjugated to HRP.
# (§2) After coating the plates overnight, the intact virus particles were removed by washing five times with the washing buffer (PBST) 10 mM PBS pH 7.4, 0.1% Tween-20, using an automated plate washer (MultiWash+, Molecular Devices, Sunnyvale, CA). Then, the plates were blocked with 200 μL of blocking buffers while shaking at 300 rpm at room temperature. The blocking buffers used were Pierce™ protein-free (PBS) blocking buffer (PF), Blocker™ BLOTTO (BT) in TBS, SuperBlock^TM blocking buffer, Blocker™ BSA (1X) in PBS all from ThermoFisher Scientific. After 2 h, the blocking buffers were removed using the same washing procedure mentioned above. Hundred microliter aliquots of several dilutions of peptides biotinylated in 10 mM PBS pH 7.4 were placed in each well and incubated for 2 h while shaking at 300 rpm at room temperature. After the incubation, the unreacted peptides were removed by using the plate washer with the same settings. Then, 100 μL-aliquots of streptavidin-HRP (ThermoFisher Scientific) at a concentration of 20 ng/mL were added into each well and incubated for 30 min at room temperature without shaking. After the incubation, excess streptavidin-HRP was removed and the wells were washed with the plate washer five times using the washing buffer. Finally, 100 μL-aliquots of the Ultra TMB-ELISA substrate solution (ThermoFisher Scientific) were added and after 10 min, the reaction was stopped by adding 100 μL aliquots of the TMB stop solution from SeraCare, available online at; https://www.seracare.com (accessed on 1 abril 2019). The […] (450 nm) was read using a microplate reader (Clariostar Optima; BMG Labtech, Ortenberg, Germany).
# The corresponding blank signals in triplicates were obtained by using all reagents without peptides. They were subtracted to the average absorbance values for triplicate wells of each test.
# The optimal concentration of peptide was determined by coating clear 96-well plates with a solution of 10^7 copies/mL of intact ZIKV particles. Concentrations of peptide, from 0.1 to 50 μM, diluted in 10 mM PBS pH 7.4 were added to wells of the microplates coated with intact ZIKV particles. […] Thus, a peptide concentration of 20 μM was used to estimate the linear range and the limit of detection (LOD) of the assay by using 10-fold serial dilutions of intact ZIKV particles from 10^1 to 10^9 copies/mL.
# The regression parameters of the assay are reported in Table 4 and the sigmoidal trend in Figure 6. The LOD was interpolated from the calibration curves using LOD = AvB + 3 × SDB, where AvB and SDB were the average (Av) and the standard deviation (SD) of the blank measurements, respectively.
# [2] = test system: DENV-1 intact virus particles; experiment: Direct ELISA cross-reactivity, DENV-1; assay type: binding; conditions: plates coated with 10^6 copies/mL of intact virus particles; peptide 20 μM
# Experimental: as §1
# (§3) After coating the plates overnight, the intact virus particles were removed by washing five times with the washing buffer (PBST) 10 mM PBS pH 7.4, 0.1% Tween-20, using an automated plate washer (MultiWash+, Molecular Devices, Sunnyvale, CA). Then, the plates were blocked with 200 μL of blocking buffers while shaking at 300 rpm at room temperature. The blocking buffers used were Pierce™ protein-free (PBS) blocking buffer (PF), Blocker™ BLOTTO (BT) in TBS, SuperBlock^TM blocking buffer, Blocker™ BSA (1X) in PBS all from ThermoFisher Scientific. After 2 h, the blocking buffers were removed using the same washing procedure mentioned above. […] The […] (450 nm) was read using a microplate reader (Clariostar Optima; BMG Labtech, Ortenberg, Germany). […]
# intact ZIKV particles [3] = experiment: Urine and serum matrix effect on the direct ELISA signal; assay type: binding, Zika virus; conditions: peptide 20 μM; for signal decrease in serum: serum diluted 1:10; for signal decrease in serum / signal decrease in urine: 10 mM PBS pH 7.4; for signal decrease in urine: urine diluted 1:1
# Experimental: as §2
# Usually, the presence of ZIKV in affected bodies is detected in biological fluids. Therefore, the analytical sensitivity of the selected peptides was tested in two biological matrices, namely, urine and serum. The matrix effect was investigated to understand how real biological fluids could modify the binding efficiency of the peptides.
# Figure 8 reports the ELISA data using solutions of peptides with or without the urine and serum obtained, coating clear 96-well plates with 10^6 and 10^7 copies/mL of intact ZIKV particles. Serum and urine were 1:10 and 1:1 diluted, respectively, with a concentrated peptide PBS solution to obtain a peptide final concentration of 20 μM (10 mM PBS, pH 7.4). A coating concentration of 10^5 was also tested, but no signal was observed after the addition of the biological matrix.
# [4] = test system: DENV-2 intact virus particles; experiment: Direct ELISA cross-reactivity, DENV-2; assay type: binding; conditions: plates coated with 10^6 copies/mL of intact virus particles; peptide 20 μM
# Experimental: as §1, §3
# [5] = 10^6 copies/mL of intact ZIKV particles
# [6] = 10^7 copies/mL of intact ZIKV particles
Substance,FPLR—Dynamic Range (intact ZIKV particles [1]),Long-term stability (intact ZIKV particles [1]) [Month],FPLR—C50 (intact ZIKV particles [1]),FPLR—maximum (intact ZIKV particles [1]),FPLR—minimum (intact ZIKV particles [1]),LOD (intact ZIKV particles [1]),"DENV/ZIKV signal ratio, DENV-1 [2]",signal decrease in serum (intact ZIKV particles [3]; [5]) [%],signal decrease in serum (intact ZIKV particles [3]; [6]) [%],signal decrease in urine (intact ZIKV particles [3]; [5]) [%],signal decrease in urine (intact ZIKV particles [3]; [6]) [%],"DENV/ZIKV signal ratio, DENV-2 [4] [%]",detection limit in urine and serum (intact ZIKV particles [3]; serum 1:10 and urine 1:1)
"C-GSKANNG [H1, experimental peptide with N-terminal cysteine, labelled with maleimide-PEG2-biotin for ELISA]","5-7 log[ZIKV], copies/mL",>1,"6.2 log[ZIKV], copies/mL",0.826 Absorbance (450 nm),0.036 Absorbance (450 nm),"4.5 log[ZIKV], copies/mL",up to 42%,82,73,53,45,,
"C-KRNATP [X1, experimental peptide with N-terminal cysteine, labelled with maleimide-PEG2-biotin for ELISA]","5-7 log[ZIKV], copies/mL",>1,"6.1 log[ZIKV], copies/mL",0.973 Absorbance (450 nm),0.026 Absorbance (450 nm),"4.8 log[ZIKV], copies/mL",32%,95,89,95,82,49,10^7 copies/mL
"C-KTDAYS [X2, experimental peptide with N-terminal cysteine, labelled with maleimide-PEG2-biotin for ELISA]","6-8 log[ZIKV], copies/mL",>1,"6.2 log[ZIKV], copies/mL",0.915 Absorbance (450 nm),0.007 Absorbance (450 nm),"5.8 log[ZIKV], copies/mL",,,,,,,
"C-LRGHA [P2, experimental peptide with N-terminal cysteine, labelled with maleimide-PEG2-biotin for ELISA]","5-7 log[ZIKV], copies/mL",>1,"6.1 log[ZIKV], copies/mL",0.928 Absorbance (450 nm),0.036 Absorbance (450 nm),"4.7 log[ZIKV], copies/mL",,77,72,72,85,34,
"C-SHRNATA [H2, experimental peptide with N-terminal cysteine, labelled with maleimide-PEG2-biotin for ELISA]","6-8 log[ZIKV], copies/mL",>1,"6.5 log[ZIKV], copies/mL",0.683 Absorbance (450 nm),0.014 Absorbance (450 nm),"5.7 log[ZIKV], copies/mL",,,,,,,
"C-SWPGQ [P1, experimental peptide with N-terminal cysteine, labelled with maleimide-PEG2-biotin for ELISA]","7-8 log[ZIKV], copies/mL",>1,"6.6 log[ZIKV], copies/mL",0.140 Absorbance (450 nm),0.001 Absorbance (450 nm),"6.8 log[ZIKV], copies/mL",,,,,,,
